Measurements: US20040006070A1, “Intraspinal continuous infusion of midazolam hydrochloride for the treatment of pain” (priority 2002, published 2004)
Counter-ions that a name gives are not always drawn.

Assay: Bloodwork: complete blood count, electrolytes, extended blood chemistry
Assay type: in vivo, sheep
Procedure: Indirect blood pressure, pulse recording, pain testing (mechanical stimulus device, cold and warm water baths see description in procedure) and weight were taken on days 1, 3, 7, 15, 22, 29, 36, and 43. Venous blood samples (15 ml drawn from the jugular vein with Vacutainer brand blood collection tubes) for complete blood count, electrolytes, and extended blood chemistry were drawn on days 1, 15, and 43 (mild procedure only light hand restraint necessary).

[1] = Double Blinded Sheep, Chemistries, Day 15
[2] = Double Blinded Sheep, Chemistries, Day 43
[3] = sheep #84 Roadrunner, 15 mg/day, Baseline
[4] = sheep #84 Roadrunner, 15 mg/day, Day 1

## Cc1ncc2n1-c1ccc(Cl)cc1C(c1ccccc1F)=NC2 [Midazolam, midazolam hydrochloride]
[1]
  ALT: 10 U/L
  AST: 72 U/L
  CPK: 100 U/L
  Cholesterol: 74 mg/dL
Double Blinded Sheep, Chemistries, Day 15, reference range 0.14-0.32
  Total Bili: 0.1 mg/dL
Double Blinded Sheep, Chemistries, Day 15, reference range 1-2.7
  Creatinine: 1.1 mg/dL
Double Blinded Sheep, Chemistries, Day 15, reference range 2.4-3
  Albumin: 3.6 g/dL
Double Blinded Sheep, Chemistries, Day 15, reference range 3.9-5.4
  K+: 4.8 mEq/l
Double Blinded Sheep, Chemistries, Day 15, reference range 5-7.3
  Phos: 6.4 mg/dL
Double Blinded Sheep, Chemistries, Day 15, reference range 6-7.9
  Total Prot: 7.1 g/dL
Double Blinded Sheep, Chemistries, Day 15, reference range 8-20
  BUN: 25 mg/dL
Double Blinded Sheep, Chemistries, Day 15, reference range 25-59
  Gamma GT: 87 U/L
Double Blinded Sheep, Chemistries, Day 15, reference range 42-76
  Glucose: 82 mg/dL
Double Blinded Sheep, Chemistries, Day 15, reference range 68-387
  Alk Phos: 154 U/L
Double Blinded Sheep, Chemistries, Day 15, reference range 139-152
  Na+: 146 mEq/l
[2]
  ALT: 15 U/L
  AST: 78 U/L
  CPK: 96 U/L
  Cholesterol: 80 mg/dL
Double Blinded Sheep, Chemistries, Day 43, reference range 0.14-0.32
  Total Bili: 0.1 mg/dL
Double Blinded Sheep, Chemistries, Day 43, reference range 1-2.7
  Creatinine: 1.0 mg/dL
Double Blinded Sheep, Chemistries, Day 43, reference range 2.4-3
  Albumin: 3.6 g/dL
Double Blinded Sheep, Chemistries, Day 43, reference range 3.9-5.4
  K+: 5.7 mEq/l
Double Blinded Sheep, Chemistries, Day 43, reference range 5-7.3
  Phos: 6.9 mg/dL
Double Blinded Sheep, Chemistries, Day 43, reference range 6-7.9
  Total Prot: 6.9 g/dL
Double Blinded Sheep, Chemistries, Day 43, reference range 8-20
  BUN: 26 mg/dL
Double Blinded Sheep, Chemistries, Day 43, reference range 25-59
  Gamma GT: 73 U/L
Double Blinded Sheep, Chemistries, Day 43, reference range 42-76
  Glucose: 70 mg/dL
Double Blinded Sheep, Chemistries, Day 43, reference range 68-387
  Alk Phos: 179 U/L
Double Blinded Sheep, Chemistries, Day 43, reference range 139-152
  Na+: 146 mEq/l
Sheep #83, 15 mg/day, Day 1
  ALT: 0 U/L
  AST: 102 U/L
  Alk Phos: 48 U/L
  BUN: 8 mg/dL
  CPK: 65 U/L
  Cholesterol: 47 mg/dL
  Differential Count: Eosin: 1%
  Differential Count: Lymph: 55%
  Differential Count: Mono: 5%
  Differential Count: Seg: 39%
  Gamma GT: 62 U/L
  Glucose: 78 mg/dL
  Hct: 37.2%
  Hgb: 12.7 g/dL
  MCH: 11.3 pg
  MCHC: 34.0 g/dL
  MCV: 33.2 fL
  Na+: 148 mEq/l
  Platlet Count: 879000 µL⁻¹
  RBC: 1.12e+07 µL⁻¹
  WBC: 5320 µL⁻¹
Sheep #83, 15 mg/day, Day 1, ref 0.14-0.32
  Total Bili: 0.1 mg/dL
Sheep #83, 15 mg/day, Day 1, ref 1-2.7
  Creatinine: 1.4 mg/dL
Sheep #83, 15 mg/day, Day 1, ref 2.4-3
  Albumin: 3.3 g/dL
Sheep #83, 15 mg/day, Day 1, ref 3.9-5.4
  K+: 4.2 mEq/l
Sheep #83, 15 mg/day, Day 1, ref 5-7.3
  Phos: 7.1 mg/dL
Sheep #83, 15 mg/day, Day 1, ref 6-7.9
  Total Prot: 6.1 g/dL
Sheep #83, 15 mg/day, Day 15
  ALT: 8 U/L
  AST: 52 U/L
  Alk Phos: 90 U/L
  BUN: 90 mg/dL
  CPK: 107 U/L
  Cholesterol: 65 mg/dL
  Differential Count: Eosin: 1%
  Differential Count: Lymph: 68%
  Differential Count: Mono: 2%
  Differential Count: Seg: 29%
  Gamma GT: 72 U/L
  Glucose: 66 mg/dL
  Hct: 33.2%
  Hgb: 11.5 g/dL
  MCH: 11.4 pg
  MCHC: 34.7 g/dL
  MCV: 33.0 fL
  Na+: 147 mEq/l
  Platlet Count: 296000 µL⁻¹
  RBC: 1e+07 µL⁻¹
  WBC: 4390 µL⁻¹
Sheep #83, 15 mg/day, Day 15, ref 0.14-0.32
  Total Bili: 0.1 mg/dL
Sheep #83, 15 mg/day, Day 15, ref 1-2.7
  Creatinine: 1.2 mg/dL
Sheep #83, 15 mg/day, Day 15, ref 2.4-3
  Albumin: 3.3 g/dL
Sheep #83, 15 mg/day, Day 15, ref 3.9-5.4
  K+: 4.5 mEq/l
Sheep #83, 15 mg/day, Day 15, ref 5-7.3
  Phos: 5.1 mg/dL
Sheep #83, 15 mg/day, Day 15, ref 6-7.9
  Total Prot: 5.9 g/dL
Sheep #83, 15 mg/day, Day 43
  ALT: 6 U/L
  AST: 53 U/L
  Alk Phos: 96 U/L
  BUN: 14 mg/dL
  CPK: 49 U/L
  Cholesterol: 52 mg/dL
  Differential Count: Atyp lym: 2%
  Differential Count: Eosin: 3%
  Differential Count: Lymph: 70%
  Differential Count: Mono: 3%
  Differential Count: Seg: 22%
  Gamma GT: 54 U/L
  Glucose: 83 mg/dL
  Hct: 34.9%
  Hgb: 11.9 g/dL
  MCH: 11.1 pg
  MCHC: 31.1 g/dL
  MCV: 32.5 fL
  Na+: 149 mEq/l
  Platlet Count: 576000 µL⁻¹
  RBC: 1.07e+07 µL⁻¹
  WBC: 4770 µL⁻¹
Sheep #83, 15 mg/day, Day 43, ref 0.14-0.32
  Total Bili: 0.1 mg/dL
Sheep #83, 15 mg/day, Day 43, ref 1-2.7
  Creatinine: 1.3 mg/dL
Sheep #83, 15 mg/day, Day 43, ref 2.4-3
  Albumin: 3.6 g/dL
Sheep #83, 15 mg/day, Day 43, ref 3.9-5.4
  K+: 4.9 mEq/l
Sheep #83, 15 mg/day, Day 43, ref 5-7.3
  Phos: 6.2 mg/dL
Sheep #83, 15 mg/day, Day 43, ref 6-7.9
  Total Prot: 6.6 g/dL
[3]
  Differential Count: Eosin: 5%
  Differential Count: Lymph: 62%
  Differential Count: Mono: 1%
  Differential Count: Seg: 32%
  Hct: 41.9%
  Hgb: 15.0 g/dL
  MCH: 10.7 pg
  MCHC: 35.7 g/dL
  MCV: 30.0 fL
  Platlet Count: 721000 µL⁻¹
  RBC: 1.4e+07 µL⁻¹
  WBC: 5790 µL⁻¹
[4]
  ALT: 9 U/L
  AST: 100 U/L
  Albumin: 3.3 g/dL
  Alk Phos: 93 U/L
  BUN: 7 mg/dL
  CPK: 90 U/L
  Cholesterol: 45 mg/dL
  Creatinine: 1.2 mg/dL
  Differential Count: Eosin: 8%
  Differential Count: Lymph: 43%
  Differential Count: Mono: 3%
  Differential Count: Seg: 46%
  Gamma GT: 51 U/L
  Glucose: 69 mg/dL
  Hct: 35.7%
  Hgb: 12.9 g/dL
  K+: 4.8 mEq/l
  MCH: 11.0 pg
  MCHC: 36.1 g/dL
  MCV: 30.4 fL
  Na+: 148 mEq/l
  Phos: 6.2 mg/dL
  Platlet Count: 962000 µL⁻¹
  RBC: 1.17e+07 µL⁻¹
